Consider 20 molecules from US5137889A, “Dihydropyridine derivatives and process for preparing the same” (Otsuka Pharmaceutical Co., Ltd., priority 1983, dated 1992).

Where two headings read alike, the source gives them in different places. Where only a bound is given, the exact number is not on record here.

Test [1] concerns the target T1, Calmodulin-cyclic-AMP phosphodiesterase (Bos taurus, UniProt P62157).
T1 construct: tissue Amano & Co. (calmodulin only); host or cells: phosphodiesterase: bovine heart, partially purified; calmodulin: bovine brain
Description: Calmodulin-cyclic-AMP phosphodiesterase inhibitory activity (presence of calmodulin). The test is classed as biochemical, bovine. An excerpt:
(1) Calmodulin: A calmodulin product manufactured by Amano & Co., which was isolated from the brain of bovine, and purified so as to be considered as a single substance with respect to SDS-page (polyacrylamide gel electrophoresis) method.
(§1) (2) Calmodulin-dependent cyclic-AMP phosphodiesterase (EC 3.1.4.17): An enzyme substance isolated from the heart of bovine and purified partially by a method of modified version of the disclosure in H. C. Ho, T. S. Teo, et al.: "Biochim. Biophys. Acta", 429, 461 (1976).
(§2) (3) 5'-Nucleotidase (EC 3.1.3.5): Grade IV substance (isolated from Crotalus adamanteus venom) manufactured by Sigma & Co.
(§3) (4) Others: Remainder of the reagents used in the test were those of reagent grade chemicals manufactured by Wako Pure-Chemical Industries, Ltd.
(§4) Calmodulin inhibitory activity of each of the test compounds was measured by a method of modified version of the disclosure in T. S. Teo and T. H. Wang: "J. Bio. Chem.", 248, 588 (1973).
(2) Calmodulin: One unit thereof stimulates 0.015 activated unit of cyclic-AMP phosphodiesterase to 50% of the maximum activity of the enzyme.
(§5) (3) 5'-Nucleotidase: One unit thereof hydrolyzes 1.0 micromole of inorganic phosphorus from adnosine 5'-monophosphate per minute at pH 9.0 at 37° C.
(1) Calmodulin-cyclic-AMP phosphodiesterase inhibitory activity:
40 mM of Imidazol, 20 mM of MgCl2, 20 mM of CaC12, 0.008 unit of cyclic-AMP phosphodiesterase, 1.0 unit of calmodulin, 0.2 unit of 5'-nucleotidase and 1.0 ml of 10 mM-tris(hydroxymethyl)aminomethane/HCl buffer solution (pH 7.0) containing 0.5 mM of cyclic-AMP were mixed together, and reacted at 30° C. for 30 minutes. Each of the test compounds was dissolved in methanol or N,N-dimethylformamide as the solvent, provided that the quantity of the solvent was not exceed 2% of the total amount of the mixture. After the reaction was completed, the reaction mixture was ice-cooled, and 0.5 ml each of aqueous solutions of 16.5%-trichloroacetic acid, 1%-thiourea, 3%-ammonium ferrous sulfate were respectively added to the reaction mixture. Further, 0.15 ml of 4.4%-ammonium molibdate solution was added to the mixture and the whole of the mixture was stirred, and was centrifuged at 3,000 r.p.m. for 10 minutes. Then, the centrifuged mixture was allowed to stand at a room temperature for 20 minutes. The OD660 nm (optical density at 660 nm) was measured.

The target of test [2] is T2, Cyclic-AMP phosphodiesterase (Bos taurus, UniProt P14100).
T2 construct: from tissue; host or cells: bovine heart, partially purified
T2 sequence (P14100 1-514 isoform P14100-2): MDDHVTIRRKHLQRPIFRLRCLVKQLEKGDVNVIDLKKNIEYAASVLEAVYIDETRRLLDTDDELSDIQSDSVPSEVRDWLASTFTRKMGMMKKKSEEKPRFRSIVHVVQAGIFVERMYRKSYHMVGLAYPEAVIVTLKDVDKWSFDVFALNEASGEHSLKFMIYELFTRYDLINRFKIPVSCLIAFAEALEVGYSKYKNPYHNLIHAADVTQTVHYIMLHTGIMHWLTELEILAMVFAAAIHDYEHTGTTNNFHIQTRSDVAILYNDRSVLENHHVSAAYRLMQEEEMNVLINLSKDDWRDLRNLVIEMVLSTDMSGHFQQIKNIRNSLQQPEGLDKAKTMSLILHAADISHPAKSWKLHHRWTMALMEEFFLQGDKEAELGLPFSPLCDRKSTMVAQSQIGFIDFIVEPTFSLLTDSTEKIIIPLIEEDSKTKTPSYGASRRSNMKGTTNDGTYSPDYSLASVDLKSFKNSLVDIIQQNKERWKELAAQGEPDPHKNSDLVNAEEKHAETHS
Nature of the test: Cyclic AMP phosphodiesterase inhibitory activity (absence of calmodulin, EGTA in place of CaCl2). The test is classed as biochemical, bovine. The following applies: 1 mM EGTA in place of CaCl2; 3 hours.
Text: as §1, §2, §3, §4, §5
(2) Cyclic AMP phosphodiesterase inhibitory activity:
The reaction was conducted by a method similar to that described in (1) as mentioned above, except that 1 mM of EGTA [ethylene glycol-bis(β-amino ethyl ether)-N,N-tetraacetic acid] was used in place of 20 mM of CaCl2. The reaction was conducted for 3 hours.

Test [3] relates to SHR-rats (spontaneously hypertensive rats). The following applies: 30 mg/kg p.o.
Description: Systolic blood pressures and heart beat of SHR-rats (spontaneously hypertensive rats) were determined by a "tail cuff method". Thus the test animal was placed in a thermostat chamber (Type: FR-12RS, manufactured by Isuze & Co.) and was warmed at 40° C. for 15 minutes so as to vasodilate the tail arteria, the systolic blood pressures were measured by an electro sphygmomanometer (Type: PE-300, manufactured by Narco-Biosystems, Inc.) and recorded by an ink-writing recorder (Type: RECTI-HORIZ 8s, manufactured by San-Ei Instrument & Co.). The experiments were conducted under non-anesthetized and semi-confinement conditions. The test compound was orally administered forcedly by using a sonde for oral administration. The test compound was suspended in 0.15%-gum arabic powder aqueous solution so as to make the quantity of the test compound to 2.5 ml/kg. The test animal was not fasted, and the systolic blood pressures (mm-Hg) were measured before the administration (hereinafter referred to as "PRE") and after the administration (8, 24, 30, 48, 54 and 72 hours after the administration) of the test compound. The data of systolic blood pressure measured before the administration are shown in absolute value of mmHg, and the data measured after the administration are shown in the differences from the absolute values.
[4] abbreviates: with calmodulin and CaCl2, pH 7.0, 30° C., 30 minutes, read-out: Calmodulin-cyclic-AMP phosphodiesterase IC50 (converted).

By IC50 is commonly meant the concentration that inhibits the measured activity by half. Regarding `COC(=O)C1=C(C)NC(C)=C(C(=O)OC/C=C/c2ccc(O)cc2)C1c1ccccc1C(F)(F)F` (stereo not shown) [Example 14], the IC50 in test [1] (setting [4]) was 12.8 µM.
Same read-out and setting: with `COC(=O)C1=C(C)NC(C)=C(C(=O)OC/C=C/c2ccccc2)C1c1cccc([N+](=O)[O-])c1` (stereo not shown) [Test Compound 2, Methyl 3-phenyl-2(E)-propenyl 1,4-dihydro-2,6-dimethyl-4-(3-nitrophenyl)pyridine-3,5-dicarboxylate] the figure was 5.57 µM.
With `COC(=O)C1=C(C)NC(C)=C(C(=O)OC/C=C/C=C/c2ccc(O)cc2)C1c1cccc([N+](=O)[O-])c1` (stereo not shown) [Test Compound 3, Methyl 5-(4-hydroxyphenyl)-2(E),4(E)-pentadienyl 1,4-dihydro-2,6-dimethyl-4-(3-nitrophenyl)-pyridine-3,5-dicarboxylate], the IC50 in test [1] (setting [4]) was 1.73 µM.
Same read-out and setting: with `COC(=O)C1=C(C)NC(C)=C(C(=O)OC/C=C/c2ccc(O)c(OC)c2)C1c1cccc([N+](=O)[O-])c1` (stereo not shown) [Test Compound 7, Methyl 3-(3-methoxy-4-hydroxyphenyl)-2(E)-propenyl 1,4-dihydro-2,6-dimethyl-4-(3-nitrophenyl)pyridine-3,5-dicarboxylate] the figure was 10.5 µM.
For `COC(=O)C1=C(C)NC(C)=C(C(=O)OC/C=C/c2ccc(OC)cc2)C1c1cccc([N+](=O)[O-])c1` (stereo not shown) [Test Compound 8, Methyl 3-(4-methoxyphenyl)-2(E)-propenyl 1,4-dihydro-2,6-dimethyl-4-(3-nitrophenyl)-pyridine-3,5-dihydrocarboxylate], the IC50 in test [1] (setting [4]) is 5.64 µM.
Take `COC(=O)C1=C(C)NC(C)=C(C(=O)OC/C=C/c2nnnn2C)C1c1cccc([N+](=O)[O-])c1` (stereo not shown) [Test Compound 9, Methyl 3-(1-methyl-1,2,3,4-tetrazol-5-yl)-2(E)-propenyl 1,4-dihydro-2,6-dimethyl-4-(3-nitrophenyl)pyridine-3,5-dicarboxylate]: the IC50 is 11.7 µM in test [1] (setting [4]) and 79.2 µM in test [2].
On to `COC(=O)C1=C(C)NC(C)=C(C(=O)OC/C=C/c2ccco2)C1c1cccc([N+](=O)[O-])c1` (stereo not shown) [Test Compound 10, Methyl 3-furyl-2(E)-propenyl 1,4-dihydro-2,6-dimethyl-4-(3-nitrophenyl)pyridine-3,5-dicarboxylate], for which the IC50 in test [1] (setting [4]) is 3.54 µM; in test [2], > 228 µM.
Taken in the same sequence, the figures for `COC(=O)C1=C(C)NC(C)=C(C(=O)OC/C=C/c2ccc(O)c(Cl)c2)C1c1cccc([N+](=O)[O-])c1` (stereo not shown) [Test Compound 11, Methyl 3-(3-chloro-4-hydroxyphenyl)-2(E)-propenyl 1,4-dihydro-2,6-dimethyl-4-(3-nitrophenyl)pyridine-3,5-dicarboxylate] were 10.6 µM and 200 µM.
As for `COC(=O)C1=C(C)NC(C)=C(C(=O)OC/C=C/c2ccccc2O)C1c1cccc([N+](=O)[O-])c1` (stereo not shown) [Test Compound 13, Methyl 3-(2-hydroxyphenyl)-2(E)-propenyl 1,4-dihydro-2,6-dimethyl-4-(3-nitrophenyl)-pyridine-3,5-dicarboxylate], the IC50 in test [1] (setting [4]) is 3.55 µM.
Same read-out and setting: under `COC(=O)C1=C(C)NC(C)=C(C(=O)OC/C=C/c2ccc(OC(C)=O)cc2)C1c1cccc([N+](=O)[O-])c1` (stereo not shown) [Test Compound 16, Methyl 3-(4-acetyloxyphenyl)-2(E)-propenyl 1,4-dihydro-2,6-dimethyl-4-(3-nitrophenyl)-pyridine-3,5-dicarboxylate] stands 5.92 µM.
As for `COC(=O)C1=C(C)NC(C)=C(C(=O)OCCN2CC=C(c3ccc(C)cc3)CC2)C1c1cccc([N+](=O)[O-])c1` (stereo not shown) [Test Compound 17, Methyl 2-[4-(4-methylphenyl)-1,2,3,6-tetra-hydropyridyl]ethyl 1,4-dihydro-2,6-dimethyl-4-(3-nitrophenyl)pyridine-3,5-dicarboxylate], the concentration for half-maximal inhibition (IC50) is 10.3 µM in test [1] (setting [4]) and > 188 µM in test [2].
In the case of `COC(=O)C1=C(C)NC(C)=C(C(=O)OC/C=C/c2ccc(O)cc2)C1c1ccccc1` (stereo not shown) [Test Compound 18, Methyl 3-(4-hydroxyphenyl)-2(E)-propenyl 1,4-dihydro-2,6-dimethyl-4-phenylpyridine-3,5-dicarboxylate], the half-inhibitory concentration (IC50) in test [1] (setting [4]) was 16.2 µM.
As to `COC(=O)C1=C(C)NC(C)=C(C(=O)OC/C=C/c2ccc(O)cc2)C1c1ccccc1C` (stereo not shown) [Test Compound 19, Methyl 3-(4-hydroxyphenyl)-2(E)-propenyl 1,4-dihydro-2,6-dimethyl-4-(2-methylphenyl)-pyridine-3,5-dicarboxylate], the IC50 in test [1] (setting [4]) was 13.4 µM.
Turning to `COC(=O)C1=C(C)NC(C)=C(C(=O)OC/C=C/c2ccc(O)cc2)C1c1ccc(OC)c(OC)c1` (stereo not shown) [Test Compound 20, Methyl 3-(4-hydroxyphenyl)-2(E)-propenyl 1,4-dihydro-2,6-dimethyl-4-(3,4-dimethoxy-phenyl)pyridine-3,5-dicarboxylate], the figures for the 50% inhibitory concentration (IC50) in test [1] (setting [4]) and in test [2] were 6.67 µM and 62.6 µM, respectively.
For `COC(=O)C1=C(C)NC(COC/C=C/c2ccc(O)cc2)=C(C(=O)OC)C1c1cccc([N+](=O)[O-])c1` (stereo not shown) [Test Compound 21, Dimethyl 1,4-dihydro-2-[3-(4-hydroxyphenyl)-2(E)-propenyloxymethyl]-6-methyl-4-(3-nitrophenyl)pyridine-3,5-dicarboxylate], in that order: 12.1 µM and > 202 µM.
Take `COC(=O)C1=C(C)NC(C)=C(C(=O)OCC#Cc2cccs2)C1c1cccc([N+](=O)[O-])c1` (stereo not shown) [Test Compound 22, Methyl 3-(2-thienyl)-2-propynyl 1,4-dihydro-2,6-dimethyl-4-(3-nitrophenyl)pyridine-3,5-dicarboxylate]: the IC50 in test [1] (setting [4]) was 2.43 µM; in test [2] it was > 221 µM.
Taken in the same sequence, the figures for `COC(=O)C1=C(C)NC(C)=C(C(=O)OCCN2CCN(CC#Cc3ccccc3)CC2)C1c1cccc([N+](=O)[O-])c1` (stereo not shown) [Test Compound 23, Methyl 2-[4-(3-phenyl-2-propynyl)-1-piperazinyl]ethyl 1,4-dihydro-2,6-dimethyl-4-(3-nitrophenyl)pyridine-3,5-dicarboxylate] were 14.3 µM and > 179 µM.
`COC(=O)C1=C(C)NC(C)=C(C(=O)OCCN(C)Cc2ccccc2)C1c1cccc([N+](=O)[O-])c1` (stereo not shown) [Test Compound 26, Methyl 2-(N-methyl-N-benzylamino)ethyl 1,4-dihydro-2,6-dimethyl-4-(3-nitrophenyl)pyridine-3,5-dicarboxylate, reference compound]: the IC50 in test [1] was 13 µM.
Take “methyl 3-(4-tetrahydropyranyloxyphenyl)-2(E)-propenyl 1,4-dihydro-2,6-dimethyl-4-(3-nitrophenyl)pyridine-3,5-dicarboxylate [Example 1]”: the “Blood pressure after the administration, 8 hours (difference from the absolute value before administration)” value in test [3] (8 hours) is on record as -20.3 mm-Hg. Further, in test [3], the “Blood pressure after the administration, 24 hours (difference from the absolute value before administration)” value was -41.0 mm-Hg; the “Blood pressure after the administration, 30 hours (difference from the absolute value before administration)” value was -52.0 mm-Hg; the “Blood pressure after the administration, 48 hours (difference from the absolute value before administration)” value is listed as -26.5 mm-Hg; the “Blood pressure after the administration, 54 hours (difference from the absolute value before administration)” value was -19.8 mm-Hg. Moreover, the “Blood pressure after the administration, 24 hours (difference from the absolute value before administration)” value in test [3] (listed as 6) was “+1.8 mm-Hg”. Also, in test [3] (72 hours), the “Blood pressure after the administration, 72 hours (difference from the absolute value before administration)” value is -12.5 mm-Hg.
For the molecule “methyl 3-[4-(2-tetrahydropyranyloxyphenyl)]-2-propynyl 1,4-dihydro-2,6-dimethyl-4-(3-nitrophenyl)pyridine-3,5-dicarboxylate [Example 3]”, in test [3], the “Blood pressure after the administration, 24 hours (difference from the absolute value before administration)” value is given as -31.0 mm-Hg; the “Blood pressure after the administration, 30 hours (difference from the absolute value before administration)” value is -30.8 mm-Hg; the “Blood pressure after the administration, 48 hours (difference from the absolute value before administration)” value is listed as -15.6 mm-Hg; the “Blood pressure after the administration, 54 hours (difference from the absolute value before administration)” value is on record as -12.6 mm-Hg.
